# Assay results: patent publication US20230333087A1, “METHODS FOR MONITORING PATIENT RESPONSE TO TREATMENT OF RETINAL OXIDATIVE DISEASES” (BioJiva LLC, priority 2022, published 2023)
# How the values were obtained:
# [1] = D-DHA content of neural retina and RPE on 0.25% D-DHA diet by mass spectrometry; type: in vivo, C57BL/6J mice; settings: for % D-substitution: 4 weeks diet + IVT injection + 1 week
# Description: To determine the pharmacokinetics of ocular D-DHA uptake, incorporation and elimination from the neural retina and RPE/choroid/sclera, twelve-week-old C57BL/6J mice were fed a 0.5% D-DHA containing diet (0.5 g D-DHA/100 g food, Table 3) for 77 days followed by an additional 73-day wash-out phase with DHA. At 4 weeks, >55% of the DHA in the retina was D-DHA rising to >60% at 5 weeks (FIG. 6A). At similar time points, D-DHA in the RPE/choroid/sclera was >80%. […] Based on the accretion and elimination data, two-month-old mice were fed with diets containing either D-DHA or natural DHA control for 1 week, 2 weeks, 3 weeks, and 4 weeks before the IVT injection of iron and saline control (FIG. 6B). In order to better approximate typical DHA doses in human prescription omega-3 supplements (e.g. 1,500 mg/day DHA in Lovaza), the D-DHA and DHA experimental mouse diets were adjusted to 0.25% instead of 0.5% for most of the study. On a 0.25% D-DHA diet, retinal D-DHA levels exceeded 50% at five weeks (52.2±1.5% and 55% of total DHA by our GC- and LC- based MS methods, respectively), regardless of whether eyes were injected with iron or control saline (Table 3).
# The extent to which D-DHA replaced natural DHA was determined by LC/MS by feeding an experimental diet containing 0.25% D-DHA for increasing periods of time. Microdissected samples of neural retina and RPE from mice fed the experimental diet for 4 weeks were analyzed after given IVT iron or control saline, and then continued on the experimental diet for another week. It was confirmed that 22.6% of DHA in the control diet consisted of isotopomers due to natural abundance ^13C and no D-DHA. Therefore, signals from the 327.2/283.2 transition represent 78.4% of the total DHA. The experimental diet contained no detectable natural DHA, but rather a distribution of deuterium-substituted DHA isotopologues (FIGS. 11A-C), which is a consequence of the D-DHA preparation method. After corrections were applied for natural abundance ^13C, it was determined that the D10-DHA isotopologue comprised 45.6% of the D-DHA species in the analyzed sample, with Ds-DHA, D9-DHA, D11-DHA, and D12-DHA isotopologues comprising the balance. Therefore, signals from the 337.2/293.2 transition represented 45.6% of the D-DHA. With these corrections applied, D-DHA isotopologues as a percentage of total DHA (i.e., D-DHA + DHA) was determined to be 59.3-60.8 % in isolated RPE, and 55.0 % in neural retina.
# Adult male wild-type C57BL/6J mice (Stock No.000664, Jackson Labs, Bar Harbor, ME, USA) were housed in standard conditions under cyclic light (12 h:12 h light-dark cycle). Mice had ad libitum access to water and food. Beginning at 2 mo of age, mice were placed on the AIN93G diet described above, supplemented with 0.25% D-DHA or DHA (control diet) for 1 week, 2 weeks, 3 weeks, or 4 weeks prior to the intravitreal injection. Mice were given an intravitreal injection of 1 µl 0.5 mM ferric ammonium citrate diluted in 0.9% NaCl (saline) (MP Biomedicals LLC, Santa Ana, CA) or
# Three types of mass spectrometric analysis were performed to confirm repeatability of results. In the first, lipids were extracted from retinas by a modified Folch method (CHCl3/CH3OH, 2:1). derivatized to fatty acid methyl esters (FAME), and analyzed by high resolution capillary gas chromatography and specialized chemical ionization tandem mass spectrometry. Baseline resolved DHA and D-DHA total ion signal were integrated, and the proportions of D-DHA/total DHA were calculated. The second type of mass spectrometric analysis was performed on samples of the control and experimental diets, as well as microdissected neural retina and RPE from animals on the experimental diet. Lipids were extracted and saponified, and analyzed by ESI-LC/MS on a 4000 QTrap (Sciex) operating in enhanced negative mode over an m/z range of 320 - 345 and a scan rate of 250 /sec. […]
# [2] = tested on: neural retina mRNA levels; assay: Quantitative PCR of mRNA changes in the neural retina; type: in vivo, C57BL/6J mice; settings: 1 week after injection
# Protocol: Quantitative PCR was used to evaluate mRNA changes in the neural retinas of mice fed with D-DHA or DHA for 4 weeks. Cell-type specific, iron regulating, antioxidant, and inflammation related genes were evaluated at 1 week after iron or saline injections. The mRNA levels of the rod-specific gene rhodopsin (Rho), cone-specific gene cone opsin1 medium wave sensitive and short wave sensitive (Opn1mw and Opn1sw) were measured to assess the stress and differentiation of rod and cone photoreceptors. […] In contrast, there was no change in these mRNAs in the neural retinas of D-DHA/IVT iron mice relative to IVT saline controls (FIG. 9). The mRNA levels of transferrin receptor (Tfrc) which are inversely related to intracellular iron levels, can be used as an indicator of intracellular iron levels. […] These two groups had slightly different Tfrc levels, perhaps as a result of loss of some photoreceptors in the DHA/IVT iron group (FIG. 9). The mRNA levels of antioxidants solute carrier family 7 member 11 (SLC7A11), glutathione peroxidase 4 (GPX4), glutathione S-transferase isoform m1(GSTm1), glutathione synthesis (GSS), catalase (Cat), heme oxygenase 1 (Hmox1), and superoxide dismutase 1 (Sod1) were measured to investigate oxidative stress. […] The mRNA levels of IL1β, IL6 and cluster of differentiation 68 (Cd68) were detected to investigate the retinal inflammation. […] The mRNA levels of Glutathione-synthase (GSS) and IL6 were not increased by IVT iron in mice on either diet (FIG. 9).
# Neural retina tissues were isolated as previously described (e.g., M Hadziahmetovic et al. Age-dependent retinal iron accumulation and degeneration in hepcidin knockout mice. Investigative ophthalmology & visual science. Jan. 5, 2011;52(1):109-18).Gene expression changes in the neural retina and purified RPE cells were evaluated. Gapdh was used as an endogenous control. […]
structure (smiles),measurement,setting,value
"[2H]C([2H])(/C=C\CC)/C=C\C([2H])([2H])/C=C\C([2H])([2H])/C=C\C([2H])([2H])/C=C\C([2H])([2H])/C=C\CCC(=O)OCC [D-DHA, 6,6,9,9,12,12,15,15,18,18-D10-(4Z,7Z,10Z,13Z,16Z, 19Z)-docosa 4,7,10,13,16, 19-hexaenoic acid ethyl ester]",retinal D-DHA levels (% of total DHA),"[1]; 0.25% D-DHA diet, five weeks (4+1), neural retina, LC-based MS method",55%
same,retinal D-DHA levels (% of total DHA),"[1]; 0.25% D-DHA diet, five weeks, GC-based MS method",52.2±1.5%
same,retinal D-DHA levels,"[1]; 0.25% D-DHA diet, five weeks, iron or saline injected eyes",exceeded 50%
same,% D-substitution,"[1]; RPE cells, D-DHA + Fe",59.3 ± 3.9%
same,% D-substitution,"[1]; RPE cells, D-DHA + saline",60.8 ± 2.1%
same,D-DHA isotopologues as a percentage of total DHA,"[1]; isolated RPE, 0.25% diet, 4+1 weeks, LC/MS",59.3-60.8%
same,substitution of DHA with D-DHA in the neural retina,[1]; mice fed with D-DHA for 4 weeks,> 50%
same,% D-substitution,"[1]; neural retina, D-DHA + Fe",55.0 ± 3.3%
same,% D-substitution,"[1]; neural retina, D-DHA + saline",55.0 ± 1.8%
same,"upregulation of antioxidants mRNA (Slc7a11, Gpx4, GSTm1, Cat, Hmox1, Sod1)",[2]; D-DHA/IVT iron eyes,prevented
same,"mRNA levels of Rho, Opn1sw (photoreceptor genes)",[2]; D-DHA/IVT iron relative to IVT saline controls,no change
same,mRNA levels of IL1β and Cd68,[2]; D-DHA/IVT iron retinas,not increased
